In the NIST ThermoML archive (doi:10.1021/je300405a):

Conditions: Liquid; for mass density: Vibrating tube method; for speed of sound: Pulse-echo method

CCCCCCCCCC(=O)OCC [ethyl decanoate]
Conditions	mass density, 343.15 K [kg/m3]	mass density, 353.15 K [kg/m3]	mass density, 363.15 K [kg/m3]	mass density, 373.15 K [kg/m3]	mass density, 383.15 K [kg/m3]	mass density, 393.15 K [kg/m3]	speed of sound, 343.15 K [m/s]	speed of sound, 363.15 K [m/s]	speed of sound, 383.15 K [m/s]	speed of sound, 403.15 K [m/s]
101.3 kPa	–	814.4	806.38	797.32	789.45	780.85	–	1065.9	1001.3	937.8
10000 kPa	–	823.62	815.94	807.87	800.55	792.15	–	1130.1	1071.1	1013.4
20000 kPa	–	832.14	824.71	817.14	810.35	802.27	–	1188.5	1132.9	1080.3
30000 kPa	–	839.63	832.73	825.49	819.06	811.47	–	1241.2	1188.3	1138.6
40000 kPa	–	846.7	840.08	833.44	826.96	819.79	–	1289.6	1239.3	1191.3
50000 kPa	–	853.22	846.82	840.48	834.28	827.43	–	1334.7	1286.4	1240.5
60000 kPa	–	859.34	853.11	847.06	841.17	834.45	–	1376.5	1329.7	1285.9
70000 kPa	871.46	865.16	859.26	853.14	847.62	840.99	–	1415.4	1370.2	1328.1
80000 kPa	876.76	870.61	864.82	859.2	853.58	847.2	1500.3	1452.8	1408.3	1367.6
90000 kPa	881.86	875.77	870.11	864.65	859.32	852.99	1535.3	1488.9	1445	1404.6
100000 kPa	886.72	880.75	875.14	869.76	864.87	858.42	1568.4	1522.8	1480	1439.8
110000 kPa	–	–	–	–	–	–	1600.4	1556	1513.4	1473.4
120000 kPa	–	–	–	–	–	–	1631.5	1586.9	1545.8	1506.4
130000 kPa	–	–	–	–	–	–	1661.5	1617.1	1576.6	1537.5
140000 kPa	–	–	–	–	–	–	1690	1646.6	1606.2	1567.3
150000 kPa	–	–	–	–	–	–	1717.3	1675.1	1634.6	1596.2
170000 kPa	–	–	–	–	–	–	1769.7	1727.6	1687.7	1650.9
190000 kPa	–	–	–	–	–	–	1818.5	1777	1740.7	1702.8
210000 kPa	–	–	–	–	–	–	1865	1824.5	1786.8	1751.8
